{"source": "patent US11311538B2", "about": "“Compositions and methods for targeting cancers” (YALE UNIVERSITY, priority 2018, dated 2022)", "key": {"[1]": {"test_system": "shFH-expressing HEK293FT tumor xenografts", "experiment": "Tumor growth delay assay, shFH HEK293FT xenografts", "assay_type": "in vivo, mouse", "source_text": "In vivo efficacy studies: HEK293FT xenografts. Female athymic nu/nu mice (Hsd:Athymic Nude-Foxnlnu, Envigo) were used for all in vivo xenograft studies. Mice were quarantined for at least 1 week before experimental manipulation. Tumors were formed using shRNA-expressing versions of the tumorigenic human embryonic kidney cell-derived line, HEK293FT. HEK293FT is a subline of HEK293 cells that has been transformed by expression of SV40 Large T-antigen. […], or shCTRL (non-targeted control) expressing HEK293FT cells were implanted subcutaneously (5×10^6 cells in 0.1 cc PBS) in the right flank of nude mice. Two efficacy studies were conducted. In one, mice were randomized into treatment and non-treated groups (10 mice/group) at day 3, with treatment initiation 4 days post implant. In a second independent in vivo efficacy study, mice were injected as above with 10 mice per group, and treatment was started only once the tumor volumes reached […]. For both studies, mice were visually observed daily and tumors were measured three times per week by calipers to determine tumor volume using the formula: Volume=L×W×W×0.532. Mice were fed with a grain based rodent diet containing Doxycycline at 200 mg/kg (Bioserv, Catalog #S3888). BMN-673 was solubilized in DMSO and diluted with PBS containing 10% dimethylacetamide (Sigma-Aldrich) and 6% Solutol (Sigma). BMN-673 (0.5 mg/kg, 0.2 cc), or vehicle (0.2 cc) was administered by oral gavage once daily for the duration of the experiment. Mean (geometric) tumor volume (mm^3) was plotted over time to monitor tumor growth. P-values were determined by ANOVA with repeated measures. In vivo efficacy studies: UOK 262 xenografts. Female athymic nu/nu mice (Hsd:Athymic Nude-Foxnlnu, Envigo) were used for all in vivo xenograft studies. Mice were quarantined for at least 1 week before experimental manipulation. UOK 262 cells were implanted subcutaneously using 5×10^6 cells in 0.1 cc PBS mixed with 0.1 cc of Corning Matrigel Matrix (Cat. No. 354234) per animal. Mice were randomized at day 3 day into two groups (n=10/group). […]"}, "[2]": {"experiment": "LC/MS analysis of intratumoral BMN-673", "assay_type": "in vivo, mouse", "conditions": "24 h after single gavage dose of 1 or 10 mg/kg, LC/MS (FIG. 4J)", "source_text": "In vivo efficacy studies: HEK293FT xenografts. Female athymic nu/nu mice (Hsd:Athymic Nude-Foxnlnu, Envigo) were used for all in vivo xenograft studies. Mice were quarantined for at least 1 week before experimental manipulation. Tumors were formed using shRNA-expressing versions of the tumorigenic human embryonic kidney cell-derived line, HEK293FT. HEK293FT is a subline of HEK293 cells that has been transformed by expression of SV40 Large T-antigen. […], or shCTRL (non-targeted control) expressing HEK293FT cells were implanted subcutaneously (5×10^6 cells in 0.1 cc PBS) in the right flank of nude mice. Two efficacy studies were conducted. In one, mice were randomized into treatment and non-treated groups (10 mice/group) at day 3, with treatment initiation 4 days post implant. […] For both studies, mice were visually observed daily and tumors were measured three times per week by calipers to determine tumor volume using the formula: Volume=L×W×W×0.532. […] P-values were determined by ANOVA with repeated measures. […] The concentrations of BMN-673 in tumor samples were determined using liquid chromatography with tandem mass spectrometry (LC-MS/MS). […] BMN673 was monitored using the positive electrospray ionization mode at the most sensitive and specific mass transition, m/z 381.0>228.8. […]"}}, "data": [{"smiles": "Cn1ncnc1[C@H]1c2n[nH]c(=O)c3cc(F)cc(c23)N[C@@H]1c1ccc(F)cc1", "note": "[BMN-673, BMN-673 (Talazoparib)]", "values": [{"measurement": "tumor growth vs vehicle, FH-deficient tumors", "setting": "[1]; treatment after tumors reached 95-150 mm^3, 0.5 mg/kg oral gavage once daily (FIG. 4H)", "value": "inhibited the growth"}, {"measurement": "tumor growth vs vehicle, shFH tumors", "setting": "[1]; treatment beginning four days after implantation, 0.5 mg/kg oral gavage once daily (FIG. 4E)", "value": "robust suppression of tumor growth"}, {"measurement": "growth of FH-deficient tumors", "setting": "[1]; two separate sets of in vivo efficacy studies, 0.5 mg/kg oral gavage once daily", "value": "significantly inhibited the growth"}, {"measurement": "intra-tumoral BMN-673 levels, shSDHB vs shCTRL HEK293FT tumors", "setting": "[2]", "value": "no significant difference"}]}]}
